Source: the OligoGym collection
After the bases stand the sugars from the 5' end (letter, count) and the backbone: PS all phosphorothioate, else s phosphorothioate and o phosphodiester by linkage. Methylation of C is not given here. l = locked nucleic acid (LNA); d = 2'-deoxy (DNA)

Target: SNHG14
Details: ASO
[1] = Mouse Primary Neuronal Cell, 0.005 µM

Sequence: ACATCTCATACTTGCTT (sugars l2 d12 l3, PS)
- target mRNA inhibition [1]: 96.9%

Sequence: AGATCATTCTCAACAATT (sugars l2 d1 l3 d10 l2, PS)
- target mRNA inhibition (Human Neuronal Cell, 7.5 µM): 46%

Sequence: TTAAGCTTTCACCTAT (sugars l2 d10 l4, PS)
- target mRNA inhibition (Human Neuronal Cell, 0.2 µM): 37%
- target mRNA inhibition (Human Neuronal Cell, 1 µM): 54%

Sequence: TCACTTTCCAGATATCA (sugars l2 d13 l2, PS)
- target mRNA inhibition (Human Neuronal Cell, 0.2 µM): 23%
- target mRNA inhibition (Human Neuronal Cell, 1 µM): -6%
- target mRNA inhibition (Human Neuronal Cell, 5 µM): 17%
- target mRNA inhibition [1]: 46.6%

Sequence: AGATCATTCTCAACAATTA (sugars ldddllddddddldlddll, PS)
- target mRNA inhibition (Human Neuronal Cell, 7.5 µM): 62%

Sequence: GATCATTCTCAACAATTA (sugars llddllddddddllddll, PS)
- target mRNA inhibition (Human Neuronal Cell, 7.5 µM): 49%

Sequence: TTTTATACCTTTCTTTAACC (sugars llddddldddddddldddll, PS)
- target mRNA inhibition (Human Neuronal Cell, 7.5 µM): 51%

Sequence: CTCAAAGATCATTCTCA (sugars l1 d1 l3 d8 l4, PS)
- target mRNA inhibition (Human Neuronal Cell, 7.5 µM): 66%

Sequence: CTGTTTATACCCTTTCCA (sugars l1 d2 l1 d12 l2, PS)
- target mRNA inhibition (Human Neuronal Cell, 7.5 µM): 56%

Sequence: CACCACTGATTTCCTT (sugars l3 d10 l3, PS)
- target mRNA inhibition (Human Neuronal Cell, 0.2 µM): 43%
- target mRNA inhibition (Human Neuronal Cell, 1 µM): 53%

Sequence: ACTGTTTATACCCTTTC (sugars l4 d11 l2, PS)
- target mRNA inhibition (Human Neuronal Cell, 0.2 µM): 43%
- target mRNA inhibition (Human Neuronal Cell, 1 µM): 51%

Sequence: AAGATCATTCTCAACAAT (sugars l2 d1 l3 d8 l4, PS)
- target mRNA inhibition (Human Neuronal Cell, 7.5 µM): 44%

Sequence: TTTATACCTTTCTTTAACCC (sugars l1 d12 l1 d4 l2, PS)
- target mRNA inhibition (Human Neuronal Cell, 7.5 µM): 17%

Sequence: TGTTTATACCCTTTCCAA (sugars l1 d12 l2 d1 l2, PS)
- target mRNA inhibition (Human Neuronal Cell, 7.5 µM): 58%

Sequence: CAGCTTTTAACCAGAGTGG (sugars l1 d15 l3, PS)
- target mRNA inhibition (Human Neuronal Cell, 7.5 µM): 69%

Sequence: TATTGATTCAATTCCCT (sugars l2 d2 l1 d10 l2, PS)
- target mRNA inhibition (Human Neuronal Cell, 7.5 µM): 55%

Sequence: CAAAGATCATTCTCAACA (sugars l1 d4 l1 d7 l5, PS)
- target mRNA inhibition (Human Neuronal Cell, 7.5 µM): 65%

Sequence: TTTATACCTTTCTTTAACCC (sugars l2 d1 l1 d14 l2, PS)
- target mRNA inhibition (Human Neuronal Cell, 7.5 µM): 50%

Sequence: TTGATTCAATTCCCTT (sugars l2 d10 l4, PS)
- target mRNA inhibition (Human Neuronal Cell, 0.2 µM): 67%
- target mRNA inhibition (Human Neuronal Cell, 1 µM): 72%

Sequence: AAAATCTCAACTACCATTT (sugars l6 d7 l2 d2 l2, PS)
- target mRNA inhibition (Human Neuronal Cell, 7.5 µM): 41%

Sequence: GCAACATTATTAACCACCT (sugars ldlddddddddddddldll, PS)
- target mRNA inhibition (Human Neuronal Cell, 7.5 µM): 58%

Sequence: TCTCAAAGATCATTCTC (sugars l3 d11 l3, PS)
- target mRNA inhibition (Human Neuronal Cell, 0.2 µM): 57%
- target mRNA inhibition (Human Neuronal Cell, 1 µM): 63%

Sequence: ATTGATTCAATTCCCTT (sugars llddlddddddddldll, PS)
- target mRNA inhibition (Human Neuronal Cell, 7.5 µM): 64%

Sequence: TTATAGCCATTCTATCT (sugars lddlddddddddlddll, PS)
- target mRNA inhibition (Human Neuronal Cell, 7.5 µM): 17%

Sequence: ATCCAAAGTTTCTTTC (sugars l4 d10 l2, PS)
- target mRNA inhibition (Human Neuronal Cell, 0.2 µM): 43%
- target mRNA inhibition (Human Neuronal Cell, 1 µM): 34%

Sequence: GCACATTCTTTCTATAC (sugars l2 d9 l1 d3 l2, PS)
- target mRNA inhibition (Human Neuronal Cell, 7.5 µM): 48%

Sequence: TTCTGTATACACCATCC (sugars ldddldddddddldlll, PS)
- target mRNA inhibition (Human Neuronal Cell, 7.5 µM): 58%

Sequence: GTTCTACTATACTTTC (sugars l4 d10 l2, PS)
- target mRNA inhibition (Human Neuronal Cell, 0.2 µM): 61%
- target mRNA inhibition (Human Neuronal Cell, 1 µM): 66%

Sequence: ACAACTATTATCTTCT (sugars l3 d10 l3, PS)
- target mRNA inhibition (Human Neuronal Cell, 0.2 µM): 40%
- target mRNA inhibition (Human Neuronal Cell, 1 µM): 57%

Sequence: GTACTTACACATCTAT (sugars l2 d10 l4, PS)
- target mRNA inhibition (Human Neuronal Cell, 0.2 µM): 45%
- target mRNA inhibition (Human Neuronal Cell, 1 µM): 26%

Sequence: CCTTCCCTTTGATAAC (sugars l3 d11 l2, PS)
- target mRNA inhibition (Human Neuronal Cell, 0.2 µM): 28%
- target mRNA inhibition (Human Neuronal Cell, 1 µM): 55%

Sequence: GCATTCAACCCTAATC (sugars l4 d10 l2, PS)
- target mRNA inhibition (Human Neuronal Cell, 0.2 µM): 46%
- target mRNA inhibition (Human Neuronal Cell, 1 µM): 47%

Sequence: TCATCCCTCCAAGAAA (sugars l4 d10 l2, PS)
- target mRNA inhibition (Human Neuronal Cell, 0.2 µM): -12%
- target mRNA inhibition (Human Neuronal Cell, 1 µM): -17%
- target mRNA inhibition (Human Neuronal Cell, 5 µM): -46%

Sequence: AAAATCTCAACTACCATTTT (sugars ldlllldddddddddlddll, PS)
- target mRNA inhibition (Human Neuronal Cell, 7.5 µM): 50%

Sequence: TGTTTCCATCTACTATTA (sugars lddddldddddddlddll, PS)
- target mRNA inhibition (Human Neuronal Cell, 7.5 µM): 62%

Sequence: TCACACCTATTATATAA (sugars l3 d11 l3, PS)
- target mRNA inhibition (Human Neuronal Cell, 0.2 µM): 11%
- target mRNA inhibition (Human Neuronal Cell, 1 µM): 16%

Sequence: CAACTCTCACTGTAACT (sugars l4 d11 l2, PS)
- target mRNA inhibition (Human Neuronal Cell, 0.2 µM): 47%
- target mRNA inhibition (Human Neuronal Cell, 1 µM): 49%

Sequence: CAACATTATTAACCACCTTA (sugars l1 d15 l4, PS)
- target mRNA inhibition (Human Neuronal Cell, 7.5 µM): 36%

Sequence: GTTCTACTATACTTTCCTC (sugars lddddddddddddldldll, PS)
- target mRNA inhibition (Human Neuronal Cell, 7.5 µM): 56%

Sequence: TTTACTCTGCAATACAC (sugars l3 d11 l3, PS)
- target mRNA inhibition (Human Neuronal Cell, 0.2 µM): 41%
- target mRNA inhibition (Human Neuronal Cell, 1 µM): 56%

Sequence: TAAAATTATTTATACACCA (sugars l5 d8 l2 d1 l3, PS)
- target mRNA inhibition (Human Neuronal Cell, 7.5 µM): 65%

Sequence: TTATAGCCATTCTATCT (sugars lddllddddddldldll, PS)
- target mRNA inhibition (Human Neuronal Cell, 7.5 µM): 15%

Sequence: TTATAGCCATTCTATCT (sugars lllddddddddldldll, PS)
- target mRNA inhibition (Human Neuronal Cell, 7.5 µM): 44%

Sequence: TTATAGCCATTCTATCT (sugars lldldddddddldldll, PS)
- target mRNA inhibition (Human Neuronal Cell, 7.5 µM): 26%
